Assay results from article PMC5584065 (Biochemical pharmacology, 2015).
Like-named read-outs stand apart in the source and are kept apart here.

How the values were obtained:
Human CYP2E1 = conditions: cited from earlier work
CYP2E1 [1] = molecular target: T1, CYP2E1 (Homo sapiens, UniProt P05181); assay: biochemical
CYP2E1 [2] = molecular target: T1, CYP2E1; assay: Impact of styrene on acetaminophen oxidation by recombinant CYP2E1; conditions: 100 µM acetaminophen, styrene 50 to 500 µM
CYP2E1 [3] = molecular target: T1, CYP2E1; conditions: read-out: Ks; styrene, free enzyme; cited from earlier work
CYP2E1 [4] = molecular target: T1, CYP2E1; assay: in vitro; conditions: recombinant enzyme, pH 7.4

T1 sequence (P05181 whole entry): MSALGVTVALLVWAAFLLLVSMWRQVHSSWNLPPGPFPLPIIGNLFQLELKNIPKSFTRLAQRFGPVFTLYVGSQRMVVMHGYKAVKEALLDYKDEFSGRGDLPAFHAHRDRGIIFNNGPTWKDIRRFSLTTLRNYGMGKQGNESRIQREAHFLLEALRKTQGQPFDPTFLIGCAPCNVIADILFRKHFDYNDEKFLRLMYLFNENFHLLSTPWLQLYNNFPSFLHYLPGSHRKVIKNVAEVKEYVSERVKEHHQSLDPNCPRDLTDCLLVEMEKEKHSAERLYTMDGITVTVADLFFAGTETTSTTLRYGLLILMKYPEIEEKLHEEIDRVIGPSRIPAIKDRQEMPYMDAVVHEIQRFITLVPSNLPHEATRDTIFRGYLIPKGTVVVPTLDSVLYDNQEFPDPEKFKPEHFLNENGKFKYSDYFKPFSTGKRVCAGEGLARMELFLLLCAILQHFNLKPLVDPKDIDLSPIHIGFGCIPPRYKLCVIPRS

| SMILES | Km (Human CYP2E1; CYP2E1 expressed in HepG2 cells or purified CYP2E1 in a reconstituted system) | Km (Human CYP2E1; reconstituted CYP2E1 system) | IC50 (CYP2E1 [1]) | remaining acetaminophen oxidation activity versus prediction (CYP2E1 [2]) | Kd (CYP2E1 [3]) | activity (CYP2E1 [4]) |
| --- | --- | --- | --- | --- | --- | --- |
| CC(=O)Nc1ccc(O)cc1 [acetaminophen] | ~600 µM | 1300 µM | – | – | – | – |
| C=Cc1ccccc1 [styrene] | – | – | 22 µM | greater than would be predicted by simple competition | 375 µM | 19% |
